Test results published in patent publication US6916432B2, “Hair bleach composition and hair dye composition” (Kao Corporation, priority 2000, dated 2005).

Test: physchem
Details: not given

Compound	logP
CC(O)CCO (centres unmarked) [1,3-butanediol]	-1.4
CCCCOCCO [ethylene glycol mono-n-butyl ether]	0.8
OC1CCCCC1 [cyclohexanol]	1.2
OCCOc1ccccc1 [2-phenoxyethanol]	1.2
OCCOCCO [diethylene glycol]	-1.3

Test: partition coefficient (octanol-water) (log P) at 25° C.
Details: octanol-water, 25° C.

Compound	log P (at 25° C.)
COCCOCCO [methoxydiglycol]	−0.7

Same assay, conditions: octanol/water

logP	Compound
-0.2	CCOCCO [2-ethoxyethanol]
-1.1	CC(O)CO (centres unmarked) [propylene glycol]
0.9	CCCCOCCOCCO [diethylene glycol mono-n-butyl ether]
1.1	CC(O)COc1ccccc1 (centres unmarked) [1-phenoxy-2-propanol]
-2.2	OCC(O)CO [glycerin]
-0.2	CCN1CCCC1=O [N-ethylpyrrolidone]
1.2	OCCOCc1ccccc1 [2-benzyloxyethanol]
-0.5	CN1CCCC1=O [N-methylpyrrolidone]
